Experimental data reported in publication PMC13222238, “Development of a gut microbiota model for the analysis of bacterial modifications of xenobiotics” (Applied Microbiology and Biotechnology, 2026).

Key:
bacterial colon model = assay: in vitro; conditions: for apparent first-order rate constant (k): 500 µM
Method: (§1) Our model was based on the isolation of intact bacterial communities from human feces. Bacterial isolation was performed using a modified density gradient centrifugation protocol first described by Hevia et al. ([2015]). To detach bacteria adhering to particulate matter and embedded within fecal biofilms, 0.001% (w/v) cetyltrimethylammonium bromide (CTAB) was added to each diluted fecal sample 30 min prior to further processing (Macfarlane et al. [1997]). All steps involving open sample handling were conducted under strictly anaerobic conditions (79% N2, 19% CO2, 2% H2) within a vinyl anaerobic chamber (Coy Laboratory Products, Grass Lake, Michigan, USA). Samples from three donors were randomly pooled for each preparation to reduce variability among individuals. From each pooled and diluted fecal suspension, 15 mL were layered onto 3.5 mL of 55% (w/v) Nycodenz® (Serumwerk Bernburg AG, Bernburg, Germany) in anaerobic centrifuge tubes. The samples were then centrifuged at 4000 × g for 30 min at room temperature.
(§2) To further purify the extracellular enzyme (exoenzyme) fraction, the supernatant was centrifuged at 18,000 × g for 3 min at 4 °C. The resulting preparation was then sterile-filtered three times through 0.22-µm syringe filters to ensure complete removal of remaining microbial cells. The sterile exoenzyme fraction was stored anaerobically at −70 °C until further use. The middle layer, which contained the gut bacteria, was collected and referred to as the bacterial colon model. The isolated microbiota was then diluted in sterile 50% (v/v) glycerol and stored at −70 °C under anaerobic conditions. Prior to use in experiments, the cryopreserved cells were washed three times with modified SHIME® saline (18,000 × g, 3 min, 4 °C) to remove any remaining Nycodenz®, glycerol, and particulate material. The final cell suspension was adjusted to an optical density at 600 nm (OD600) of 10, corresponding to approximately 1.43 × 10^10 cells mL^−1, as determined microscopically using a Neubauer counting chamber (Hager et al. [2025]). This microbial density was about 16% of the mean in vivo bacterial concentration in the human colon, estimated at 8.8 × 10^10 cells mL^−1 (assuming a fecal density of 1.04 g mL^−1 (Sender et al. [2016])).
(§3) To enable parameter-based comparison of compound conversion across incubation matrices, apparent first-order kinetic parameters were calculated from precursor compound depletion data. Only quantifiable time points were considered. Because these values represent apparent kinetic estimates derived from a limited number of sampling points, they were interpreted primarily for comparative purposes. Detailed experimental conditions and analytical parameters are provided in Supplementary Tab. S2.
(§4) To evaluate the metabolic capabilities of the human colon model presented here, a panel of structurally diverse xenobiotics was selected based on microbial biotransformation reactions reported in the literature (Fig. 7, Supplementary Fig. S2). […] Together, these reference substrates served as model compounds covering major gut microbial transformation chemistries, enabling a matrix-to-matrix performance evaluation of the colon model. All compounds were incubated anaerobically for 24 h with pooled human fecal slurry, the bacterial colon model, and the sterile-filtered fecal exoenzyme fraction, derived from three independent donor pools (n = 3 each).

[1] = test system: sterile-filtered fecal exoenzyme fraction; assay: Xenobiotic depletion in the sterile-filtered fecal exoenzyme fraction; type: in vitro ADME, human; conditions: anaerobic, 24 h
Method: (§5) To further purify the extracellular enzyme (exoenzyme) fraction, the supernatant was centrifuged at 18,000 × g for 3 min at 4 °C. The resulting preparation was then sterile-filtered three times through 0.22-µm syringe filters to ensure complete removal of remaining microbial cells. The sterile exoenzyme fraction was stored anaerobically at −70 °C until further use. The middle layer, which contained the gut bacteria, was collected and referred to as the bacterial colon model. The isolated microbiota was then diluted in sterile 50% (v/v) glycerol and stored at −70 °C under anaerobic conditions.
as §3
(§6) To evaluate the metabolic capabilities of the human colon model presented here, a panel of structurally diverse xenobiotics was selected based on microbial biotransformation reactions reported in the literature (Fig. 7, Supplementary Fig. S2). […] Together, these reference substrates served as model compounds covering major gut microbial transformation chemistries, enabling a matrix-to-matrix performance evaluation of the colon model. […] Product levels were estimated using the nitrendipine calibration and are therefore semi-quantitative.
(§7) Table S1: Composition of the modified SHIME®-based regeneration media.
(§8) To evaluate microbial xenobiotic metabolism under defined conditions, incubations were conducted using model substrates representing major biotransformation classes: 4- […]
(§9) reduction), and nitrendipine (nitro group reduction). Reaction mixtures were prepared under […]
(§10) rich substrate formulation with 1 g L-1 mucin, pectin, and xylan (substrate control), (ii) 150 µL pooled fecal suspension (three individual pools with n = 3 donors each, 1:10 diluted in SHIME® saline) + 60 µL fiber-rich substrate, (iii) 300 µL pooled exoenzyme fraction (three individual pools with n = 3 donors each, 1:10 in SHIME® saline), and (iv) 150 µL bacterial colon model + 60 µL fiber-rich substrate. All incubations contained 500 µM of the respective test compound.
(§11) At defined time points, samples were mixed 1:1 (v/v) with ethanol, vortexed, and centrifuged […]
(§12) (18,000 × g, 3 min). The resulting supernatant was combined 1:1 (v/v) with acetonitrile (100 %) […]
(§13) The clarified supernatant was diluted with the mobile phase prior to injection. Non-polar and UV-absorbing compounds were analyzed on a Knauer Eurospher II C8 column (250 × 4 mm, 5 µm) with a C8 guard cartridge using an AZURA CT 2 system (Knauer, Berlin, Germany) equipped with a SpectraSystem SCM1000 degasser, P4000 pump, AS3000 autosampler, and UVD 2.1L detector. Paracetamol was analyzed on a Shodex Asahipak NH2P-50 3E column (Showa Denko, Japan) with a corresponding guard column and an RI- […]
(§14) Chromatographic parameters, including mobile-phase composition, column temperature, flow rate, and detection wavelength are summarized in Suppl. Tab. S1. Quantification of parent compounds and metabolites was performed by […]

[2] = Xenobiotic depletion in buffer (SHIME saline with fiber-rich substrate, substrate control)
Method: as §3, §7, §8
as §10, with “reduction), and nitrendipine (nitro group reduction). Reaction mixtures were prepared under anaerobic conditions (37°C, 24 h) as follows: (i) 210 µL SHIME® saline containing the fiber-rich substrate formulation” for “rich substrate formulation”
as §11, §12
The clarified supernatant was diluted with the mobile phase prior to injection. Non-polar and UV-absorbing compounds were analyzed on a Knauer Eurospher II C8 column (250 × 4 mm, 5 µm) with a C8 guard cartridge using an AZURA CT 2 system (Knauer, Berlin, Germany) equipped with a SpectraSystem SCM1000 degasser, P4000 pump, AS3000 autosampler, and UVD 2.1L detector. Paracetamol was analyzed on a Shodex Asahipak NH2P-50 3E column (Showa Denko, Japan) with a corresponding guard column and an RI-101 detector (Ercatech AG, Germany). Chromatographic parameters, including mobile-phase composition, column temperature, flow rate, and detection wavelength are summarized in Suppl. Tab. […]. Quantification of parent compounds and metabolites was performed by external calibration using analytical reference standards.
(§15) Table S2: Chromatographic conditions for HPLC-based detection of selected xenobiotics and their microbial transformation products. Analytes were separated on either C8 or amino columns under compound-specific conditions. Mobile phases consisted of acetonitrile (ACN) with acidic modifiers and were operated under isocratic flow. Detection wavelengths correspond to the absorbance maxima […]
(§16) Column Mobile phase Tempera Flow rate UV detection […]
To confirm the identity of selected biotransformation products, representative samples were analyzed by liquid chromatography-mass spectrometry (LC-MS). Samples were mixed 1:1 (v/v) with ethanol and centrifuged (18,000 × g, 5 min). From the resulting supernatant, 50 µL were diluted in 450 µL H₂O: ACN (70:30, v/v). Prior to analysis, samples were filtered through

[3] = test system: pooled human fecal slurry; assay: Xenobiotic depletion in pooled human fecal slurry, anaerobic incubation
Method: as §3, §6, §7, §8, §9, §10, §11, §12, §13
(§17) Chromatographic parameters, including mobile-phase composition, column temperature, flow rate, and detection wavelength are summarized in Suppl. Tab. S1. Quantification of parent compounds and metabolites was performed by external calibration using analytical reference standards.
as §15, §16

[4] = Xenobiotic depletion in the bacterial colon model, anaerobic incubation; conditions: human
Method: as §1, §2, §3, §4

[5] = Xenobiotic depletion in the sterile-filtered fecal exoenzyme fraction; type: in vitro ADME, human; conditions: human, sterile-filtered fecal exoenzyme fraction (cell-free), 500 µM test compound, anaerobic, 37°C, 24 h, three donor pools, read-out: half-life (t1/2) (converted)
Method: as §5, §3, §6, §7, §8, §9, §10, §11, §12, §13, §14

in vitro = conditions: human
Method: as §3, §6, §7, §8, §9, §10, §11, §12, §13, §17, §15, §16

[6] = 500 µM test compound, 37°C, three donor pools
[7] = buffer, 500 µM test compound, anaerobic, 37°C, 24 h
[8] = fecal slurry, 500 µM test compound, anaerobic, 37°C, 24 h, three donor pools

SMILES | conversion in the bacterial colon model (in words) (bacterial colon model) | half-life (t1/2) (bacterial colon model; human) | apparent first-order rate constant (k) [1, 6] | half-life (t1/2) [1, 6] | conversion in the exoenzyme fraction (in words) [1] | conversion in the exoenzyme fraction (in words) ([1]; listed as 4-acetoxyacetanilide) | apparent first-order rate constant (k) [2, 7] | half-life (t1/2) [2, 7] | conversion in fecal slurry (in words) ([3]; fecal slurry, anaerobic, 24 h) | apparent first-order rate constant (k) [3, 8] | half-life (t1/2) [3, 8] | apparent first-order rate constant (k) (bacterial colon model; human) | half-life at 500 µM [4] | half-life at 500 µM [5] | half-life at 500 µM ([2]; buffer) | half-life at 500 µM (in vitro) | apparent first-order rate constant (k) ([3]; human, 500 µM) | apparent first-order rate constant (k) ([2]; 500 µM)
CC(=O)Nc1ccc(OC(C)=O)cc1 [4-Acetoxyacetanilide, 4-acetoxyacetanilide] | rapidly degraded | 1.8 min | 13.46 h⁻¹ | 3 min | clear hydrolytic activity | relevant activity | 0.02 h⁻¹ | > 24 h | rapidly degraded | 15.38 h⁻¹ | 3 min |  |  |  |  |  |  | 
O=C(N[C@H](CO)[C@H](O)c1ccc([N+](=O)[O-])cc1)C(Cl)Cl [Chloramphenicol, chloramphenicol] |  |  | 0.003 h⁻¹ |  |  |  |  |  |  |  |  | 0.47 h⁻¹ | 1.47 h | > 24 h | > 24 h | 1.54 h | 0.45 h⁻¹ | 
CCOC(=O)C1=C(C)NC(C)=C(C(=O)OC)C1c1cccc([N+](=O)[O-])c1 (centres unmarked) [Nitrendipine, nitrendipine] |  |  | 0.002 h⁻¹ |  | no relevant conversion |  |  |  |  |  |  | 0.92 h⁻¹ | 0.75 h | > 24 h | > 24 h | 1.58 h | 0.44 h⁻¹ | 0.0009 h⁻¹
CC(=O)OCC(=O)NCCCOc1cccc(CN2CCCCC2)c1 [Roxatidine-acetate, roxatidine-acetate] |  |  | 0.16 h⁻¹ |  |  |  |  |  |  |  |  | 1.13 h⁻¹ | 0.61 h | 4.33 h | > 24 h | 0.6 h | 1.16 h⁻¹ | 0.005 h⁻¹
O=C(O)c1cc(/N=N/c2ccc(S(=O)(=O)Nc3ccccn3)cc2)ccc1O [Sulfasalazine, sulfasalazine] |  |  | 0.003 h⁻¹ |  |  |  |  |  |  |  |  | 1.20 h⁻¹ |  | > 24 h | > 24 h |  | 0.93 h⁻¹ | 0.002 h⁻¹
CC1=C(CC(=O)O)c2cc(F)ccc2/C1=C\c1ccc([S+](C)[O-])cc1 (centres unmarked) [Sulindac, sulindac] |  |  | 0.003 h⁻¹ |  | no meaningful conversion |  |  |  |  |  |  | 0.20 h⁻¹ | 3.47 h | > 24 h | > 24 h | 5.78 h | 0.12 h⁻¹ | 0.0003 h⁻¹
